Values of other authors in US9095555B2, “Cannabinoid formulations” (FULL SPECTRUM LABORATORIES LIMITED, priority 2011, dated 2015).

Tests used:
[1] = prolonged contact with air, oxidation to cannabinol (CBN)

CCCCCc1cc(O)c2c(c1)OC(C)(C)[C@@H]1CCC(C)=C[C@@H]21 [Dronabinol, Δ^9-tetrahydrocannabinol]
Oxidation stability [1]: prone to oxidation | Onset of therapeutic potency (after oral administration): 0.5 to 1 h | Amount reaching the blood stream by absorption through the digestive system (oral): 10-20 % of the administered dose | Peak therapeutic effect lasting (post administration, oral): 2 to 4 h
